One may read the IC50 as the midpoint of a concentration-inhibition curve. Usually IC90 stands for the concentration at which the effect reaches the 90% level.

Common to all, as to assay type: cell-based
Test [1] has as its system Leishmania donovani promastigotes. The test can be described thus: In vitro antileishmanial assay, promastigotes. The settings on record: for IC50: read-out: L. donovani promastigotes IC50; for IC90: read-out: L. donovani promastigotes IC90.
Test [2] has as its system Leishmania donovani axenic amastigotes. The test can be described thus: In vitro antileishmanial assay, axenic amastigotes. The note with it: for IC50: read-out: L. donovani Axenic amastigotes IC50; for IC90: read-out: L. donovani Axenic amastigotes IC90.
In test [3] the test system is Blood stage forms of Trypanosoma brucei brucei. The test is described as follows: In vitro antitrypanosomal assay. The note with it: NA: not active.
Test [4] deals with Plasmodium falciparum chloroquine sensitive (D6, Sierra Leone). The test can be described thus: In vitro antimalarial assay. The note with it: D6, read-out: P. falciparum IC50 (D6).
The subject of test [5] is Plasmodium falciparum chloroquine resistant (W2, Indo China). The test can be described thus: In vitro antimalarial assay. The note with it: W2, read-out: P. falciparum IC50 (W2).

In the case of `N=C(N)c1ccc(OCCCCCOc2ccc(C(=N)N)cc2)cc1` [Pent, pentamidine], in test [1], the 50% inhibitory concentration (IC50) worked out at 2.04 µM and the 90% effect concentration (IC90) came to 3.67 µM. In test [2], the 50% inhibitory concentration (IC50) is 15.3 µM and the concentration for an effect of 90% (IC90) was 16.9 µM.

For `C[C@@H]1[C@H](O)[C@@H](C)/C=C/C=C/C=C/C=C/C=C/C=C/C=C/[C@H](O[C@@H]2O[C@H](C)[C@@H](O)[C@H](N)[C@@H]2O)C[C@@H]2O[C@](O)(C[C@@H](O)C[C@@H](O)[C@H](O)CC[C@@H](O)C[C@@H](O)CC(=O)O[C@H]1C)C[C@H](O)[C@H]2C(=O)O` [Amp B, Amphotericin B], in test [1], the half-inhibitory concentration (IC50) was found to be 0.192 µM and the concentration for an effect of 90% (IC90) was determined as 0.312 µM. Also, in test [2], the IC50 amounted to 1.73 µM and the concentration for an effect of 90% (IC90) was 2 µM.

`NCCCC(N)(C(=O)O)C(F)F` (stereo not shown) [DFMO, difluoromethylornithine]: the “T. brucei IC9” value in test [3] (Table 3) is 59.175 ± 5.748 µM. The half-inhibitory concentration (IC50) in test [3] (read-out: Trypanosoma brucei IC50) turned out to be 21.3 ± 2.01 µM. Moreover, the IC90 in test [3] (read-out: Trypanosoma brucei IC90) was determined as 59.2 ± 5.75 µM.

For `CCN(CC)CCCC(C)Nc1ccnc2cc(Cl)ccc12` (stereo not shown) [CQ, chloroquine], the IC50 in test [4] was 0.052 µM; in test [5] it was 0.46 µM.
